The values that follow come from patent US8747809B2, “Single diastereomers of 4-fluoroglutamine and methods of their preparation and use” (The Trustees Of The University Of Pennsylvania, priority 2009, dated 2014).

The subject of one assay is 9 L cells. Description: In vitro inhibition studies of 4-[18F]F-glutamine (2S,4R) uptake. The class given is cell-based, rat. As to conditions: for effect of inhibitor on tracer uptake / transporter (in words): 0.5 mM to 5 mM; for uptake of [18F]4-FGln (2S,4R) in presence of inhibitor: 30 minutes co-incubation, 5 mM stated for MeAIB, control 3.56. The method, then:
(§1) Because of this observation, we decided only to further investigate the (2S,4R) isomer of [^18F]4-FGln, 1. In vitro cell uptake inhibition studies were conducted in 9 L cells in order to test the specificity of [^18F]4-FGln (2S,4R), 1. Cold L-glutamine and L-serine served as the positive control inhibitors for the glutamine transporters. L-glutamine inhibits system N transporter and L-serine inhibits the ASC transporter. Three different concentrations were tested for each inhibitor ranging from 0.5 mM to 5 mM. After 30 minutes of co-incubation of L-glutamine and [^18F] […] Cold MeAIB served as the negative control, which inhibits system A transporter.
(§2) The cellular uptake of each of the four 4-[^18F]F-glutamine isomers (2S,4R), (2S,4S), (2R,4S) and (2R,4R) were studied in (9 L) rat brain gliosarcoma cells. L-[3,4-^3H(N)]-glutamine, >97%, 250 μCi (9.25 MBq), was purchased from Perkin Elmer and was used as a control for all of the cellular uptake experiments conducted. […] All four of the 4-[^18F]F-glutamine isomers and the L-[3,4-^3H(N)]-glutamine was dissolved in PBS solution and was added to each well (500,000 cpm/mL/well) and incubated at 37° C. for 5, 30, 60, 120 min. At the end of the incubation period, the wells were aspirated and then the residual cells were washed 3 times with 1 mL ice cold PBS without Ca^2+ and Mg^2+. After washing with cold PBS, 350 μL 1M NaOH was used to lyse the cells. The lysed cells were collected onto filter paper. The filter papers were placed in scintillation vials and counting fluid was added (7 mL ecolite+) and the vials were then counted with a beta counter 18-24 h later. For dual-isotope studies using 4-[^18F]F-glutamine isomers and L-[3,4-^3H(N)]-glutamine, the vials were counted first using a gamma counter to obtain ^18F counts. The beta counts were then obtained one day later after the ^18F was fully decayed. 100 μL of the cell lysate was used for the determination of the protein concentration by Lowry method.
To test the specificity of the 4-[^18F]F-glutamine (2S,4R) isomer, inhibition studies were conducted using 9 L cells. The tracer was incubated at 37° C. for 30 min. The cells were processed as previously described as above. Cold L-glutamine and L-Serine served as the positive control inhibitors for the glutamine transporters. L-glutamine inhibits system N transporter and L-Serine inhibits the ASC transporter. Cold MeAIB served as the negative control, which inhibits system A transporter. Three different concentrations were tested for each inhibitor ranging from 0.5 mM to 5 mM.

The next assay deals with 9 L tumor cell line. The assay is described as follows: In vitro cell uptake studies of the four 4-[18F]F-glutamine isomers. The class given is cell-based, rat. As to conditions: 18F-labeled isomer, 37° C., 5-120 min, compared to [3H]glutamine. The method, then:
Cell uptake of four possible isomers was evaluated using 9 L tumor cell line. The cell uptake results (% dose/100 μg protein) were compared to that of [^3H] glutamine.
as §1, §2

SMILES strings stand for the structures. Entries after “also recorded” stand apart in the source; their conditions may differ.

As to `N[C@@H](CO)C(=O)O` [L-serine], in the assay on 9 L cells (30 min), the “effect of inhibitor on tracer uptake / transporter (in words)” value is on record as “considerable inhibition”. Moreover, in the assay with 9 L cells, the “uptake of [18F]4-FGln (2S,4R) in presence of inhibitor” value (shortened to “uptake of [18F]4-FGln … of inhibitor”) worked out at 1.41 % dose/100 ug protein.

Consider `NC(=O)CC[C@H](N)C(=O)O` [L-glutamine], for which the “effect of inhibitor on tracer uptake / transporter (in words)” value with 9 L cells (30 min) is reported as “clearly inhibited”. The “uptake of [18F]4-FGln … of inhibitor” value in the assay on 9 L cells amounted to 0.49 % dose/100 ug protein. The inhibition (in general, how much of the control response was suppressed) at 5000 µM in the assay on 9 L cells (Rattus norvegicus, 0.5 h, 30 min, [5 mM], read-out: inhibition of [18F]4-FGln (2S,4R) uptake) is about 90%.

Consider `CNC(C)(C)C(=O)O` [MeAIB], for which, in the assay on 9 L cells (30 min), the “effect of inhibitor on tracer uptake / transporter (in words)” value was “little to no effect”. In the assay with 9 L cells, the “uptake of [18F]4-FGln … of inhibitor” value was 3.69 % dose/100 ug protein.

Consider `NC(=O)[C@H](F)C[C@@H](N)C(=O)O` [Compound 4, (2R,4R)-4-FGln], for which the “cell uptake in 9 L cells (in words)” value in the assay on 9 L tumor cell line was “lower cell uptake”.

Consider `NC(=O)[C@H](F)C[C@H](N)C(=O)O` [Compound 1, (2S,4R)-2,5-Diamino-4-fluoro-5-oxopentanoic acid], for which the “cell uptake in 9 L cells (in words)” value in the assay with 9 L tumor cell line (listed as 4-FGln (2S,4R)) is given as “high uptake; also recorded: excellent uptake”.

Regarding `NC(=O)[C@@H](F)C[C@@H](N)C(=O)O` [Compound 3, (2R,4S)-4-FGln], in the assay on 9 L tumor cell line, the “cell uptake in 9 L cells (in words)” value is recorded as “lower cell uptake”.
